Measured values taken from BindingDB's records for patent US20240262826 (Blueprint Medicines, 2024).

target: Mast/stem cell growth factor receptor Kit (Homo sapiens, UniProt P10721); test: Biochemical Phospho c-Kit Inhibition Assay
Experimental: For the PathScan phospho c-kit (Tyr719) sandwich ELISA: M-07e cells were resuspended at 2×10^6 cells/mL in phenol red free, serum-free, GM-CSF-free Iscove's Modified Dulbecco's Medium (IMDM) media with 1% Penicillin-Streptomycin. The cells were then dispensed into the wells of a U-bottom, 96-well plate at 50 uL per well using a multichannel pipet. The plate was allowed to incubate at 37° C. in a humidified tissue culture incubator for 4 hours.After 4 hours of incubation, each well was dosed with 6.25 uL of test compound at a final DMSO concentration of 0.25% for 60 min at 37° C. to generate an 8-point dose concentration series of test compounds in duplicate. Cells were then incubated for 1 hour at 37° C. in a humidified tissue culture incubator. Next, human SCF at 500 ng/mL was added to the appropriate wells at 6.25 uL/well and the plate was shaken at 450 rpm at room temperature for 10 minutes. AlphaLISA 5× Lysis Buffer supplemented with 1× protease and phosphatase inhibitor was then added at 16 uL/well. The plate was sealed with an adherent cover and shaken at 4° C. at 600 rpm for 30 minutes. After this period of lysis, the plate was stored at −80° C. When the 96-well plate containing M07e lysates was ready to be processed, the plate was brought to room temperature and 40 μl from each well was transferred to the wells of a PathScan Phospho-c-Kit (Tyr719) Sandwich ELISA plate (CST, Catalog #7298). The ELISA plate was sealed with an adherent cover and incubated for 2 hours at 37° C. Next, the wells were washed 4 times with the provided 1× Wash Buffer, and 100 uL/well of reconstituted Detection Antibody was added to each well, the plate sealed with an adherent cover, and incubated at 37° C. for 1 hour. The wash procedure was repeated and 100 uL/well of reconstituted HRP-Linked secondary antibody was added. The plate was sealed with an adherent cover and incubated at 37° C. for 1 hour. The wash procedure was repeated and 100 uL/well of TMB Substrate was added. The plate was incubated for 10 minutes at room temperature or until the positive reaction elicited a blue color in the appropriate wells. 100 uL/well of STOP solution was added and shaken gently for a few seconds a microplate reader or conventional spectrophotometer e.g., a Perkin Elmer Envision multimode plate reader, part #2105-0010.

Mast/stem cell growth factor receptor Kit, sequence (P10721 whole entry): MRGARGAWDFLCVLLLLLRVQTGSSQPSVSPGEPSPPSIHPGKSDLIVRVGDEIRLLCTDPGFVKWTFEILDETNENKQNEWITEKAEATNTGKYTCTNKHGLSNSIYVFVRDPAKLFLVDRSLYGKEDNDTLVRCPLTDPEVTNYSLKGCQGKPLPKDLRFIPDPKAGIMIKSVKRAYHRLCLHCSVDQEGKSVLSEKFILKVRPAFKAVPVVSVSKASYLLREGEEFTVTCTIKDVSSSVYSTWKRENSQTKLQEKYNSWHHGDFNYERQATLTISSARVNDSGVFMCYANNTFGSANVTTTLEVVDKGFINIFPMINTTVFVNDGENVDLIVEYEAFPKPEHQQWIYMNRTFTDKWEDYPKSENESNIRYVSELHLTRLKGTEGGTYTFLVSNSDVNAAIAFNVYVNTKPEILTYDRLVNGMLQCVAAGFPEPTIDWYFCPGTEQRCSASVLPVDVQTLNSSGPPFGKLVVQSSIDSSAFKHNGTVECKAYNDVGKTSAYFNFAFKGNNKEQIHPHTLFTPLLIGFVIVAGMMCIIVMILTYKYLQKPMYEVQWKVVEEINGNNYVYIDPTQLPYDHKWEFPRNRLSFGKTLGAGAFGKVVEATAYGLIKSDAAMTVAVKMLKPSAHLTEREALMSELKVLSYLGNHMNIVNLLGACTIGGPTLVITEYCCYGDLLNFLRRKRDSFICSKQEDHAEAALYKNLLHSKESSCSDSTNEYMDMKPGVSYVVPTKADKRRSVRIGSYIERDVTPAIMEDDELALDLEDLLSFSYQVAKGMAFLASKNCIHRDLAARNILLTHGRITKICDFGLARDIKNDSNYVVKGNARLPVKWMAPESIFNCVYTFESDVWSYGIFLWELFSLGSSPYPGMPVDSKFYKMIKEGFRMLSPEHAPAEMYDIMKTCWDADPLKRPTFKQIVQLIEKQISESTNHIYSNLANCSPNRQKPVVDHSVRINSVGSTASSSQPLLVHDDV

| Structure (SMILES) | IC50 [nM] |
| --- | --- |
| Cc1ccc(-c2nnn(C3CC(F)(F)C3)n2)cc1NC(=O)c1cnn2ccc(N3CC[C@H]3CO)cc12 [US20240262826, Compound 104] | 3.5 |
| O=C(Nc1cc(-c2nnn(C3CC(F)(F)C3)n2)c(Cl)cc1Cl)c1cnn2ccc(N3CCOCC3)cc12 [US20240262826, Compound 167] | 7.3 |
| Cc1ccc(-c2nnn(CCOCC(F)(F)F)n2)cc1NC(=O)c1cnn2ccc(-c3cn[nH]c3)cc12 [US20240262826, Compound 197] | 1.4 |
| Cc1cnn(-c2ccc(C)c(NC(=O)c3cnn4ccc(-c5cnn(C[C@H]6CNCCO6)c5)cc34)c2)n1 [US20240262826, Compound 205] | 8.2 |
| COCCOC[C@@H](O)Cn1cc(-c2ccn3ncc(C(=O)Nc4cc(-c5nnn(C6CC6)n5)c(C)cc4Cl)c3c2)cn1 [US20240262826, Compound 261] | 1.7 |
